Data on five molecules can be found in patent publication US9949960B2, “Pharmaceutical composition for preventing or treating muscle weakness-related diseases, containing butylpyridinium or derivative thereof” (KOREA RESEARCH INSTITUTE OF BIOSCIENCE AND BIOTECHNOLOGY, priority 2014, dated 2018).

In experiment [1] the test system is C2C12 myoblast cell line. Put plainly: Myotube formation of C2C12 cells observed under phase contrast microscopy. The following applies: 0.2 μM, 3 days differentiation, compared to DMSO control; FIG. 1. Type of experiment: cell-based, mouse. On the procedure:
C2C12 is a cell line of myoblasts obtained from a C3H strain live mouse, and it is widely used in the differentiation studies of myoblasts.
The above-described C2C12 cells were cultured in each of general media for cell growth and media for differentiation. In the normal cell growth media (GM), DMEM supplemented with 10% fetal bovine serum was used, and in the differentiation media (DM), DMEM containing 2% horse blood serum was used.
(§1) The DMSO, cetylpyridinium chloride, butylpyridinium chloride, and dodecylpyridinium chloride used in the experiment were all purchased from Sigma-Aldrich.

Experiment [2] concerns C2C12 myoblast cell line. Description: Immunocytochemistry of MYH3 expression in differentiating C2C12 cells. In kind it is cell-based, mouse. The conditions noted are these: 0.2 μM, third day of differentiation; FIG. 2. On the procedure: as §1
C2C12 cells on a cover glass coated with 0.1% gelatin were differentiated for 3 days. After washing the cells with 1×PBS, fixing with 3.7% paraformaldehyde at room temperature for 15 minutes, and washing 3 times with 1×PBS, a permeabilization buffer was added, and the cells were reacted at room temperature for 15 minutes. After washing the cells three times with 1×PBS again, the cells were reacted for 30 minutes with PBST (blocking buffer, PBS containing 0.5% Tween 20) containing 1% BSA to deter any unspecific binding of antibodies. The primary antibody against MYH3 (SC-20641, Santa Cruz Biotechnology) was added to the blocking buffer by diluting at a ratio of 1:500 and was reacted at room temperature for 1 hour. After washing the cells three times with 1×PBS, the secondary antibody (Goat anti-Rabbit IgG-HRP), which was diluted in the blocking buffer at a ratio of 1:5000, was added and reacted at room temperature for 1 hour, and the cells were washed three times with 1×PBS. The cover glass was placed on a slide glass, photographs were taken with a fluorescence microscope, and the results were analyzed.

The subject of experiment [3] is C2C12 myoblast cell line. Description: Western blot of MYH3 protein in differentiating C2C12 cells. In kind it is cell-based, mouse. The following applies: 0.2 μM every day, third day of differentiation, vs DMSO control; FIG. 3. As to the method:
The cells were harvested on the third day of differentiation and centrifuged at 1200 rpm for 3 minutes. After adding 100 μL of a lysis buffer to the cells, the cells were sonicated and centrifuged at 3000 rpm for 10 minutes to obtain a water-soluble protein, and after adding a 4× sample buffer, the cells were reacted in boiling water for 5 minutes.
10 μg of the protein was loaded on a 12% SDS-PAGE gel and developed, and then was transferred onto a nitrocellulose membrane. The nitrocellulose membrane was blocked in 5% skim milk for 1 hour at room temperature and washed 5 times with TTBS (0.03% Tween 20, Tris 2.42 g, NaCl 9 g, pH 7.4, and 1 L) for 5 minutes each. The primary antibody was diluted in TTBS containing 5% skim milk at a ratio of 1:500 and was added to the nitrocellulose membrane, and after reacting at room temperature for 2 hours, the nitrocellulose membrane was again washed 5 times with TTBS for 5 minutes each. The secondary antibody was diluted at a ratio of 1:5000 again in TTBS containing 5% skim milk and added, was reacted at room temperature for 2 hours, was washed with TTBS 5 times for 5 minutes each, and ECL (Enhanced Chemiluminescent solution, Pierce) was added. Thereafter, the membrane was exposed to X-ray film, and the amount of the protein was measured.

For experiment [4], the system named is C57BL/6 male mice, muscle immobilization model. Description: Grip strength test after tibialis anterior muscle immobilization. Type of experiment: in vivo, mouse. The following applies: compared to control group. As to the method: (§2) As experimental animals, 20 of C57BL/6 male mice aged 6 weeks were used. The experimental animals were assigned to two groups: a control group, to which 10 mice having similar weights were assigned without administration, and an experimental group, to which 10 mice having similar weights were assigned with butylpyridinium chloride administration.
(§3) It was also administered continuously during the muscle immobilization periods described below.
(§4) In this experiment, as a method for inducing muscle regeneration in mice, the tibialis anterior muscle immobilization protocol was used. In this method, the thighs and shins of one leg of a mouse were fixed using a medical staple so that legs were immobilized, and after leaving the immobilized mouse alone for 3 days, the fixed leg was released. The principle used in this method is that when a leg is placed in a cast and the muscle of the leg is immobilized (i.e., not frequently used), the muscle is lost. […]
Grip strength was measured using a grip strength measuring instrument made by the company BIOSEB. The mouse was placed on a wire mesh attached to the instrument panel that can monitor the strength of a force, and the force of holding the wire mesh by the mouse while the tail was gripped downward was measured. […]

Experiment [5] shares this test system. Put plainly: Rota-rod test after tibialis anterior muscle immobilization. The conditions noted are these: compared to control group. In kind it is in vivo, mouse. As to the method: as §2, §3
as §4, with “lost. It is a method for inducing muscle regeneration, in which, after the muscle loss due to immobilizing the shin muscle, the muscle is regenerated by releasing the immobilized muscle so that the muscle may move again.” for “lost.”

For experiment [6] the test system is unchanged. Description: Treadmill test after tibialis anterior muscle immobilization. Type of experiment: in vivo, mouse. The conditions noted are these: compared to control group. On the procedure:
as §2, §3
as §4, with “lost. It is a method for inducing muscle regeneration, in which, after the muscle loss due to immobilizing the shin muscle, the muscle is regenerated by releasing the immobilized muscle so that the muscle may move again.” for “lost.”

Experiment [7] has as its system mouse immobilization model. Description: Skeletal muscle mass (muscle weight divided by body weight) in mouse immobilization model. In kind it is in vivo. The following applies: oral, concentration-dependent, 7 days after inducing regeneration; FIG. 11. From the text:
Afterwards, an increase in the skeletal muscle mass due to the drug was confirmed by dividing the weight of the separated muscle by the body weight of the mouse (FIG. 11).

For experiment [8], the system named is mouse immobilization model. Put plainly: Motor ability by rota-rod and treadmill tests after concentration-dependent oral administration. The following applies: FIG. 10.
Method: The exercise was applied using a rota-rod device consisting of 6 partitions (with a diameter of 7 cm, at an interval of 15 cm) and a rotatable cylindrical bar (with a height of 60 cm).
For the treadmill used in this test, a self-manufactured device was used. After each mouse was placed in an isolated lane and made to run, the time from the starting point to a point when the mouse was exhausted (i.e., judged to have no will to run) was recorded. […] In this experiment, repeated experiments on the same mouse could not be performed. The mouse was placed on the device and was made to run at a speed of 8 rpm, the speed was accelerated by 2 rpm every 10 minutes up to a speed of 18 rpm, and starting with no inclination, the inclination was increased by 5 degrees every 30 minutes.
Experiment [9] has as its system mouse immobilization model. Description: Muscle fiber cross-sectional area (Laminin staining of TA muscle) in mouse immobilization model. The conditions noted are these: 1.7 mg/kg (mouse) oral, compared to control group; FIG. 12.
Method: The separated muscle was cut to a thickness of 5 μM and stained by immunofluorescence using a Laminin antibody. […] By using the Laminin antibody, sections of the skeletal muscle fibers formed in the basement membrane were stained, and the cross-sectional area of the muscle fibers was measured (FIG. 12).

For the molecule `CCCCCCCCCCCCCCCC[n+]1ccccc1` [cetylpyridinium chloride], the “formation of myotubes (differentiation promoting effect)” value with C2C12 myoblast cell line [1] is “more myotubes were formed”. The “expression of MYH3 (immunocytochemistry)” value in the experiment on C2C12 myoblast cell line [2] was “very high”. For the same molecule, the “amount of MYH3 protein (Western blot)” value in the experiment on C2C12 myoblast cell line [3] is given as “significantly increased”. Moreover, in experiment [4] (50 mg/kg oral for 2 weeks, FIG. 7), the “range of decrease in grip strength after muscle immobilization” value was “reduced”. The “motor ability to maintain the sense of balance (rota-rod)” value in experiment [5] (50 mg/kg oral for 2 weeks, FIG. 8) is on record as “improved”. Moreover, the “endurance (treadmill)” value in experiment [6] (50 mg/kg oral for 2 weeks, FIG. 9) was “improved”. In experiment [7], the “skeletal muscle mass of the EDL muscle” value is “increased” and the “skeletal muscle mass of the gastrocnemius muscle” value is reported as “increased”. In addition, in [8], the “motor ability (rota-rod and treadmill tests)” value is reported as “improved”. Besides, the “cross-sectional area of the muscle (TA)” value in [9] is recorded as “increased”.

With `CCCC[n+]1ccccc1` [butylpyridinium chloride], the “formation of myotubes (differentiation promoting effect)” value with C2C12 myoblast cell line [1] is on record as “more myotubes were formed”. In the experiment with C2C12 myoblast cell line [2], the “expression of MYH3 (immunocytochemistry)” value is listed as “very high”. Besides, the “amount of MYH3 protein (Western blot)” value with C2C12 myoblast cell line [3] is given as “significantly increased”. Besides, the “range of decrease in grip strength after muscle immobilization” value in experiment [4] (15 mg/kg oral, 3 days immobilization, tested 7 days after release, FIG. 4) is listed as “reduced”. The “motor ability to maintain the sense of balance (rota-rod)” value in [5] (15 mg/kg oral, after muscle immobilization, FIG. 5) is “improved”. The “endurance (treadmill)” value in experiment [6] (15 mg/kg oral, after muscle immobilization, FIG. 6) is on record as “improved”.

Regarding `CC[n+]1ccccc1.[Cl-]` [ethylpyridinium chloride], in the experiment with C2C12 myoblast cell line [3], the “amount of MYH3 protein (Western blot)” value is given as “did not increase”.

Take `CCCCCCCCCCCCCCCC[n+]1ccccc1` [cetylpyridinium bromide]: the “amount of MYH3 protein (Western blot)” value in the experiment on C2C12 myoblast cell line [3] is recorded as “increased”.

`CCCCCCCCCCCC[n+]1ccccc1` [dodecylpyridinium chloride]: the “formation of myotubes (differentiation promoting effect)” value with C2C12 myoblast cell line [1] was “more myotubes were formed”. Also, the “expression of MYH3 (immunocytochemistry)” value in the experiment with C2C12 myoblast cell line [2] is “very high”. Besides, the “amount of MYH3 protein (Western blot)” value in the experiment on C2C12 myoblast cell line [3] is given as “significantly increased”.
